In patent US6429312B2, “N-aminoalkyldibenzothiopencarboxamide receptor subtype specific ligands” (Neurogen Corporation, priority 1996, dated 2002):
Counter-ions that a name gives are not always drawn. Like-named read-outs stand apart in the source and are kept apart here. One block for each compound: values may come before it.

How the values were obtained:
D2 receptors = biological target: T1, D2 receptors (Chlorocebus aethiops, UniProt P52702); assay: D2 receptor binding assay (3H-YM 09151-2 displacement); parameters: species or system African Green monkey
T1 construct: expressed in transfected cells; host or cells: COS cells
T1 sequence (P52702 whole entry): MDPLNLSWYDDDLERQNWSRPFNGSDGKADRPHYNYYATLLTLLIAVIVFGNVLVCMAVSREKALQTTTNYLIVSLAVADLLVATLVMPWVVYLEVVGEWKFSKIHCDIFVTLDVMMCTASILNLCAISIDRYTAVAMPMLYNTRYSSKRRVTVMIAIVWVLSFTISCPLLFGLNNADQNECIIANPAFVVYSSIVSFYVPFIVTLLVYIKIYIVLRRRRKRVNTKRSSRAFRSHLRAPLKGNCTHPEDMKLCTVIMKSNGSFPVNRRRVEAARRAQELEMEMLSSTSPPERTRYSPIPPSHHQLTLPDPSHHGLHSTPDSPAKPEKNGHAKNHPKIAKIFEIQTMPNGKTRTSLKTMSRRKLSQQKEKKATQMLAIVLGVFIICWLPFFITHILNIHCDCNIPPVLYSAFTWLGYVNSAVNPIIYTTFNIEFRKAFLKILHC
Method: (§1) ASSAY FOR D2 AND D3 RECEPTOR BINDING ACTIVITY
(§2) Pellets of COS cells containing recombinantly produced D2 or D3 receptors from African Green monkey were used for the assays. The sample is homogenized in 100 volumes (w/vol) of 0.05 M Tris HCl buffer at 4° C. and pH 7.4. The sample is then centrifuged at 30,000×g and resuspended and rehomogenized. The sample is then centrifuged as described and the final tissue sample is frozen until use. The tissue is resuspended 1:20 (wt/vol) in 0.05 M Tris HCl buffer containing 100 mM NaCl.
(§3) Incubations are carried out at 48° C. and contain 0.4 ml of tissue sample, 0.5 nM ^3H-YM 09151-2 and the compound of interest in a total incubation of 1.0 ml. Nonspecific binding is defined as that binding found in the presence of […] spiperone; without further additions, nonspecific binding is less than 20% of total binding. The binding characteristics of representative compounds of the invention for D2 and D3 receptor subtypes are shown in Table 2 for rat striatal homogenates.

D3 receptors = biological target: T2, D3 receptors (Chlorocebus aethiops, UniProt P52703); assay: D3 receptor binding assay (3H-YM 09151-2 displacement); parameters: species or system African Green monkey
T2 construct: expressed in transfected cells; host or cells: COS cells
T2 sequence (P52703 whole entry): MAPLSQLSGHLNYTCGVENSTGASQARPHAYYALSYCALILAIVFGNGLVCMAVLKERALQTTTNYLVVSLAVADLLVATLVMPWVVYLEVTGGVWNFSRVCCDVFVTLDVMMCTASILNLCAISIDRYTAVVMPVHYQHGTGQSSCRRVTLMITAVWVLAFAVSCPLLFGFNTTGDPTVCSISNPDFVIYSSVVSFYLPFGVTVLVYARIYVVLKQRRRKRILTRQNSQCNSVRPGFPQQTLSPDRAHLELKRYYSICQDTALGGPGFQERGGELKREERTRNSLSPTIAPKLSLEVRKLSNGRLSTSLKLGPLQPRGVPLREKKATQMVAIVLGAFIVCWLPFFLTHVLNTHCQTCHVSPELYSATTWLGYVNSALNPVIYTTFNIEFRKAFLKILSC
Method: as §1, §2, §3

melting point: 225 to 228 °C
SMILES: O=C(NCCCCN1CCN(c2cccc3ccccc23)CC1)c1ccc2sc3ccccc3c2c1 (as salt: hydrochloride) [Compound 2, N-(1-{4-[4-(1-Naphthyl)piperazin-1-yl]}butyl)-2-dibenzothiophenecarboxamide hydrochloride]

SMILES: O=C(NCCCCN1CCN(c2cccc(Cl)c2Cl)CC1)c1ccc2sc3ccccc3c2c1 [Compound 1, N-(1-{4-[4-(2,3-Dichlorophenyl)piperazin-1-yl]}butyl)-2-dibenzothiophenecarboxamide hydrochloride]
Ki (D2 receptors): 285 nM
Ki (D3 receptors): 3.5 nM

Ki (D2 receptors; COS cells containing recombinantly produced D2 receptors, 0.5 nM 3H-YM 09151-2, nonspecific binding with 1 mM spiperone, read-out: D2 Ki): 242 nM
Ki (D3 receptors; COS cells containing recombinantly produced D3 receptors, 0.5 nM 3H-YM 09151-2, nonspecific binding with 1 mM spiperone, read-out: D3 Ki): 5 nM
SMILES: O=C(NCCCCN1CCN(c2cccc3ccccc23)CC1)c1ccc2sc3ccccc3c2c1 [Compound 2, N-(1-{4-[4-(1-Naphthyl)piperazin-1-yl]}butyl)-2-dibenzothiophenecarboxamide hydrochloride]
